The text below walks through data of ChEMBL document CHEMBL5029159, “Reduction of Progranulin-Induced Breast Cancer Stem Cell Propagation by Sortilin-Targeting Cyclotriazadisulfonamide (CADA) Compounds” (J Med Chem, 2021).

For series [1], the system named is HEK-293T. In words: Down modulation of sortilin expression in HEK293T cells tranfected with GFP-tagged sortilin incubated for 24 hrs by flow cytometric analysis. Format: functional, cell-based. Particulars: Homo sapiens. On the technique in general: A flow cytometer gives signals particle by particle.
For series [2], the system named is MDA-MB-231. In words: Inhibition of mammosphere-forming capacity in ER-negative human MDA-MB-231 cells assessed as inhibition of progranulin-induced mammosphere formation at 4 uM measured after 48 hrs by microscopy. Format: functional, cell-based.
In series [3] the test system is MCF7. The series is described as follows: Effect on mammosphere-forming capacity in ER-positive human MCF7 cells measured after 48 hrs by microscopy. Type of series: functional, cell-based.
The subject of series [4] is MDA-MB-231. The series is described as follows: Inhibition of mammosphere-forming capacity in ER-negative human MDA-MB-231 cells assessed inhibition of as progranulin-induced mammosphere formation at 1 uM measured after 48 hrs by microscopy. Format: functional, cell-based.
Series [5] is described as follows: Therapeutic index, ratio of CC50 for cytotoxicity against human HEK293T cells to ratio of IC50 for Down modulation of sortilin expression in HEK293T cells tranfected with GFP-tagged sortilin incubated for 24 hrs by flow cytometric analysis. Particulars: read-out: TI. Type of series: toxicity, cell-based.
Series [6] is described as follows: Kinetic solubility of compound at pH 7.4 PBS buffer incubated for 30 mins by nephelometry. Particulars: for solubility kinetic at 0.5 h: PBS buffer, pH 7.4, read-out: Kinetic_solubility; for Kinetic_solubility: buffer, pH 7.4, 0.5 h. Format: physicochemical.
The test system of series [7] is MCF7. In words: Inhibition of mammosphere-forming capacity in ER-positive human MCF7 cells assessed as inhibition of progranulin-induced mammosphere formation at 4 uM measured after 48 hrs by microscopy. Format: functional, cell-based.
For series [8], the system named is MDA-MB-231. In words: Effect on mammosphere-forming capacity in ER-negative human MDA-MB-231 cells measured after 48 hrs by microscopy. Type of series: functional, cell-based.
For series [9], the system named is HEK-293T. In words: (§1) Cytotoxicity against human HEK293T cells assessed as reduction in cell viability after 72 hrs by alamar blue assay. Type of series: cell-based. Particulars: hek-293t, 72 h. For orientation: Alamar Blue is a resazurin reagent that responds to reducing activity.
The test system of series [10] is MDA-MB-231. In words: Cytotoxicity against human MDA-MB-231 cells assessed as reduction in cell viability after 48 hrs by alamar blue assay. Format: functional, cell-based.
Series [11] deals with MCF7. The series is described as follows: Inhibition of mammosphere-forming capacity in ER-positive human MCF7 cells assessed as inhibition of progranulin-induced mammosphere formation at 1 uM measured after 48 hrs by microscopy. Type of series: functional, cell-based.
Series [12] is described as follows: as §1. Type of series: cell-based, HEK-293T. The settings on record: HEK293T cells.
The test system of series [13] is MDA-MB-231. The series is described as follows: Down modulation of sortilin expression in ERalpha-negative human MDA-MB-231 cells incubated for 48 hrs by Western blot analysis. Type of series: ADME, cell-based. Particulars: mda-mb-231, 48 h. (Immunoblotting shows a protein as a band on a membrane.)
For series [14], the system named is MCF7. The series is described as follows: Down modulation of sortilin expression in ERalpha-positive human MCF7 cells incubated for 48 hrs by Western blot analysis. Type of series: ADME, cell-based. The settings on record: mcf7, 48 h.
The subject of series [15] is MCF7. In words: Cytotoxicity against human MCF7 cells assessed as reduction in cell viability after 48 hrs by alamar blue assay. Type of series: functional, cell-based.

pIC50: −log10 of the molar value. The source made the active and inactive calls. No cut-off for these calls is given here. A value given as a limit tells only on which side of the number the result lay.

Consider `C=C1CN(S(=O)(=O)c2ccc(C)cc2)CCc2cc(-c3ccccc3)cc(n2)CCN(S(=O)(=O)c2ccc(C)cc2)C1.Cl`, for which the pIC50 in the series with HEK-293T [1] is 5.40. For the same molecule, the inhibition entry in the series on MDA-MB-231 [2], in the series on MDA-MB-231 [4] and in the series on MCF7 [7] was “Active” each time. The result in the series with MCF7 [3] and with MDA-MB-231 [8] was inactive. Further, the selectivity ratio at 24 h in series [5] was over 12.5. Moreover, in series [6], the solubility kinetic at 0.5 h worked out at 61 µM. The CC50 in the series with HEK-293T [9] is over 50000 nM.
In the series with HEK-293T [1], `C=C1CN(S(=O)(=O)c2ccc(C)cc2)CCCN(CCc2ccccc2)CCCN(S(=O)(=O)c2ccc(C)cc2)C1.Cl` had a pIC50 of 6.00. The outcome in the series on MCF7 [3], in the series with MDA-MB-231 [10], in the series with MDA-MB-231 [8] and in the series on MCF7 [15] was inactive. Moreover, the inhibition result in the series with MDA-MB-231 [4] and in the series on MCF7 [11] was “Active” in each case. In addition, the selectivity ratio at 24 h in series [5] is over 50. Also, the Kinetic_solubility in [6] is 55 µM. Also, the CC50 at 72 h in series [12] worked out at 50000 nM. The Activity entry with MDA-MB-231 [13] is reported as “Active”; with MCF7 [14], “Dose-Dependent Effect”.
Take `C=C1CN(S(=O)(=O)c2ccc(C)cc2)CCCN(CC2CCCCC2)CCCN(S(=O)(=O)c2ccc(OC)cc2)C1.Cl`: in the series on HEK-293T [1], the pIC50 was 6.30. Moreover, the result in the series on MCF7 [3] and in the series with MDA-MB-231 [8] was inactive. Further, the selectivity ratio at 24 h in series [5] stood at 2.8. The same molecule displayed a Kinetic_solubility in [6] of 57 µM. Besides, the CC50 in the series on HEK-293T [9] came out at 1400 nM.
In the case of `C=C1CN(S(=O)(=O)c2ccc(OC)cc2)CCCN(CC2CCCCC2)CCCN(S(=O)(=O)c2ccc(N(C)C)cc2)C1.Cl`, the pIC50 in the series on HEK-293T [1] is 7.00. For the same molecule, the outcome in the series with MCF7 [3], in the series with MDA-MB-231 [10], in the series on MDA-MB-231 [8] and with MCF7 [15] was inactive. The inhibition result with MDA-MB-231 [4] and with MCF7 [11] was “Active” in each case. For the same molecule, the selectivity ratio at 24 h in [5] is 10. For the same molecule, the Kinetic_solubility in [6] worked out at 56 µM. The CC50 with HEK-293T [9] is 1000 nM. In addition, the Activity result with MDA-MB-231 [13] was “Active”; in the series on MCF7 [14], “Dose-Dependent Effect”.
For `C=C1CN(S(=O)(=O)c2ccc(C)cc2)CCCN(Cc2ccccc2)CCCN(S(=O)(=O)c2ccc(C)cc2)C1.Cl` [CYCLOTRIAZADISULFONAMIDE HYDROCHLORIDE], the pIC50 with HEK-293T [1] was 5.66. Besides, the outcome with MCF7 [3] and in the series with MDA-MB-231 [8] was inactive. Besides, the selectivity ratio at 24 h in series [5] was over 23. In addition, the solubility kinetic at 0.5 h in series [6] amounted to 43 µM. The CC50 with HEK-293T [9] is over 50000 nM.
`C=C1CN(S(=O)(=O)c2ccc(N(C)C)cc2)CCCN(CC2CCCCC2)CCCN(S(=O)(=O)c2cccc3ccccc23)C1.Cl`: the pIC50 with HEK-293T [1] was 5.72. Besides, the outcome in the series on MCF7 [3], in the series on MDA-MB-231 [10], with MDA-MB-231 [8] and in the series on MCF7 [15] was inactive. Also, the inhibition result in the series with MDA-MB-231 [4] and with MCF7 [11] was “Active” throughout. The selectivity ratio at 24 h in series [5] was over 26. This molecule registered a Kinetic_solubility in [6] of 60 µM. The CC50 at 72 h in [12] is over 50000 nM. Moreover, the Activity result is given as “Active” with MDA-MB-231 [13] and “Dose-Dependent Effect” in the series on MCF7 [14].
On to `C=C1CN(S(=O)(=O)c2ccc(C)cc2)CCCN(CC2CCCCC2)CCCN(S(=O)(=O)c2ccc(OCCO)cc2)C1.Cl`, for which the negative-log IC50 (pIC50) with HEK-293T [1] was 5.05. Also, the inhibition result in the series with MDA-MB-231 [2], in the series on MDA-MB-231 [4] and in the series with MCF7 [7] was “Active” throughout. The result with MCF7 [3] and with MDA-MB-231 [8] was inactive. Besides, in series [5], the selectivity ratio at 24 h turned out to be 1.7. In addition, the Kinetic_solubility in series [6] came to 59 µM. Also, the CC50 in the series with HEK-293T [9] was found to be 15000 nM.

Usually pIC50 stands for −log10 of the IC50, conventionally taken in molar units. Higher therefore signals a small IC50. Broadly, the CC50 is the concentration that lowers cell viability or growth by half.
